Reference: patent US20050159599A1, “Cyclic compound, process for producing the same, and pest control agent” (priority 2002, published 2005)

Tests used:
Format in all cases: in vivo
[1] = tested on: Plutella xylostella; experiment: Insecticidal effect for Plutella xylostella by immersion treatment of host crop (Test Example 1); conditions: cabbage leaf dipped, second-instar larvae of Plutella xylostella, fifth day after; for rate of dead pests (%): 100 ppm; for pest or weed control at 100 ppm: foliar, 120 h, read-out: rate of dead pests (%)
Method: Insecticidal Effect for Plutella xylostella by Immersion Treatment of Host Crop One true leaf of 7 to 8-leave stage cabbage was cut off and dipped in a pesticidal solution for a few seconds, which was prepared by dissolving 5 mg of test compound (represented by the compound Nos. in the above Examples) in 0.5 ml of acetone containing Tween 20 (trade name) and then diluting it to the prescribed concentration (100 ppm) with Dain (trade name, sticker) water diluted 5000-fold. After drying the pesticidal solution, the leaf was put into an ice cream cup (180 ml), and ten second-instar larvae of Plutella xylostella were set free therein. The cup was left in a temperature-controlled breeding room (24° C.). On the fifth day after, the number of surviving Plutella xylostella was examined. The rate of dead pests was calculated by the following formula. rate of dead pests (%)=(number of dead pests/number of test pests)×100

[2] = tested on: Spodoptera litura; experiment: Insecticidal effect for Spodoptera litura by spraying treatment to host crop (Test Example 2); conditions: 100 ppm, sprayed on soybean, third-instar larvae of Spodoptera litura, fifth day after; for pest or weed control at 100 ppm: 120 h, read-out: rate of dead pests (%)
Procedure, shortened: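 Soybean plants with fully developed primary leaves sprayed to runoff with 100 ppm compound (acetone/Tween 20, sticker water). Dried leaves given to ten third-instar larvae at 25° C.; survivors counted on day 5, mortality as dead/tested × 100.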

[3] = tested on: Spodoptera litura; experiment: Insecticidal effect for Spodoptera litura by immersion treatment of host crop root (Test Example 4); conditions: 25 ppm, soybean root immersion 5 days, second-instar larvae of Spodoptera litura, fifth day after; for pest or weed control at 25 ppm: 120 h, read-out: rate of dead pests (%)
Method: Insecticidal Effect for Spodoptera litura by Immersion Treatment of Host Crop Root Roots of primary leaves developing stage soybean was washed with tap water to remove soil, and then immersed in a pesticidal solution which was prepared by dissolving 5 mg of test compound (represented by the compound Nos. in the above Examples) in 0.5 ml of acetone containing Tween 20 ([…]) with ion-exchange water, and which was filled in a light-shielded Erlenmeyer flask (100 ml). On the fifth day after immersion of root, two primary leaves were cut off, and the leaves were put into an ice cream cup (180 ml). Ten second-instar larvae of Spodoptera litura were set free therein, and the cup was left in a temperature-controlled breeding room (25° C.). On the fifth day after, the number of surviving Spodoptera litura was examined. The rate of dead pests was calculated by the following formula. rate of dead pests (%)=(number of dead pests/number of test pests)×100

Compound	rate of dead pests (%) [1]	rate of dead pests (%) [2]	rate of dead pests (%) [3]	further results
C=CCN1CN(C(=O)c2c(F)cccc2F)C(=O)N(c2cc(Cl)c(F)c(Cl)c2F)C1 [III-56]	100%	100%		
COC(=O)N1CN(C(=O)c2c(F)cccc2F)C(=O)N(c2ccc(Oc3ccc(C(F)(F)F)cc3Cl)cc2F)C1 [III-28]	100%	100%		
O=C(c1c(Cl)cccc1Cl)N1COCN(c2ccc(SC(F)(F)F)cc2F)C1=O [I-398]	100%	100%		
CS(=O)(=O)N1CN(C(=O)c2c(F)cccc2F)C(=O)N(c2ccc(Oc3ccc(C(F)(F)F)cc3Cl)cc2F)C1 [III-26]	100%	100%		
O=C(c1c(F)cccc1F)N1CSCN(c2ccc([S+]([O-])C(F)(F)C(F)Cl)cc2F)C1=O (stereo not shown) [II-22]	100%			
C#CCN1CN(C(=O)c2c(F)cccc2F)C(=O)N(c2cc(Cl)c(F)c(Cl)c2F)C1 [III-57]	100%	100%		
O=C(c1c(F)cccc1F)N1CNCN(c2cc(Cl)c(OC(F)(F)C(F)C(F)(F)F)cc2Cl)C1=O (stereo not shown) [III-71]	100%	100%		
CN(C)C(=O)C(=O)N1CN(C(=O)c2c(F)cccc2F)C(=O)N(c2ccc(Oc3ccc(C(F)(F)F)cc3Cl)cc2F)C1 [III-43, 2-[3-[4-(2-chloro-4-trifluoromethylphenoxy)-2-fluorophenyl]-5-(2,6-difluorobenzoyl)hexahydro-4-oxo-1,3,5-triazin-1-yl]-N,N-dimethyl-2-oxoacetamide]				pest or weed control at 100 ppm [1]: 100%; pest or weed control at 100 ppm [2]: 100%
O=C(c1c(F)cccc1F)N1COCN(c2ccc([S+]([O-])C(F)(F)F)c(F)c2F)C1=O (stereo not shown) [I-108]	100%			
CN1CN(C(=O)c2c(F)cccc2F)C(=O)N(c2ccc(S(=O)(=O)C(F)F)cc2F)C1 [III-156, 1-(2,6-difluorobenzoyl)-3-[4-(difluoromethylsulfonyl)-2-fluorophenyl]-5-methyltetrahydro-1,3,5-triazin-2 (1H)-one]				pest or weed control at 100 ppm [1]: 100%; pest or weed control at 100 ppm [2]: 100%
O=C(OCc1ccccc1)N1CN(C(=O)c2c(F)cccc2F)C(=O)N(c2cc(Cl)c(OC(F)(F)C(F)C(F)(F)F)cc2Cl)C1 (stereo not shown) [III-70]	100%	100%		
O=C(NOCc1ccccc1)C(=O)N1CN(C(=O)c2c(F)cccc2F)C(=O)N(c2ccc(Oc3ccc(C(F)(F)F)cc3Cl)cc2F)C1 [III-50]	100%	100%		
COC(=O)N1CN(C(=O)c2c(F)cccc2F)C(=O)N(c2cc(Cl)c(F)c(Cl)c2F)C1 [III-61]	100%		100%	
O=C(c1c(F)cccc1Cl)N1COCN(c2ccc([S+]([O-])C(F)F)cc2F)C1=O (stereo not shown) [I-219]		100%	100%	
COC(=O)N1CN(C(=O)c2c(F)cccc2F)C(=O)N(c2ccc(Cl)cc2)C1 [III-13]		100%	100%	
O=C(c1c(Cl)cccc1Cl)N1COCN(c2ccc([S+]([O-])C(F)(F)F)cc2F)C1=O (stereo not shown) [I-399]		100%	100%	
C#CCN1CN(C(=O)c2c(F)cccc2F)C(=O)N(c2ccc(Cl)cc2)C1 [III-8]		100%	100%	
C#CCN1CN(C(=O)c2c(F)cccc2F)C(=O)N(c2ccc(Oc3ccc(C(F)(F)F)cc3Cl)cc2F)C1 [III-23]	100%	100%		
COC(=O)SN1CN(C(=O)c2c(F)cccc2F)C(=O)N(c2cc(Cl)c(F)c(Cl)c2F)C1 [III-62]	100%	100%		
O=C(c1c(F)cccc1F)N1CN(Cc2ccccc2)CN(c2cc(Cl)c(F)c(Cl)c2F)C1=O [III-60]	100%	100%		
C[S+]([O-])c1ccc(N2COCN(C(=O)c3c(F)cccc3Cl)C2=O)c(F)c1 (stereo not shown) [I-206]	100%		100%	
Cc1ccc(S(=O)(=O)N2CN(C(=O)c3c(F)cccc3F)C(=O)N(c3cc(Cl)c(F)c(Cl)c3F)C2)cc1 [III-63]	100%	100%		

Compound	rate of dead pests (%) [1]	rate of dead pests (%) [2]	rate of dead pests (%) [3]	further results
O=C(OCc1ccccc1)N1CN(C(=O)c2c(F)cccc2F)C(=O)N(c2cc(Cl)c(F)c(Cl)c2F)C1 [III-55, 5-benzyloxycarbonyl-1-(3,5-dichloro-2,4-difluorophenyl)-3-(2,6-difluorobenzoyl)tetrahydro-1,3,5-triazin-2(1H)-one]				pest or weed control at 100 ppm [1]: 100%; pest or weed control at 100 ppm [2]: 100%
O=C(c1c(F)cccc1Cl)N1COCN(c2ccc([S+]([O-])C(F)(F)F)c(Cl)c2)C1=O (stereo not shown) [I-255]		100%	100%	
COC(=O)C(=O)N1CN(C(=O)c2c(F)cccc2F)C(=O)N(c2cc(Cl)c(OC(F)(F)C(F)C(F)(F)F)cc2Cl)C1 (stereo not shown) [III-72]	100%	100%		
O=C(c1c(F)cccc1F)N1CN(c2ccccc2)CN(c2ccc(Cl)cc2)C1=O [III-2, 1-(4-chlorophenyl)-3-(2,6-difluorobenzoyl)-5-phenyltetrahydro-1,3,5-triazin-2(1H)-one]				pest or weed control at 100 ppm [2]: 100%; pest or weed control at 25 ppm [3]: 90%
O=C(c1c(F)cccc1Cl)N1COCN(c2ccc([S+]([O-])C(F)(F)F)cc2Cl)C1=O (stereo not shown) [I-252]		100%	100%	
O=C(c1c(F)cccc1F)N1COCN(CC(F)(F)F)C1=O [I-40]		100%	100%	
O=C(c1c(F)cccc1Cl)N1COCN(c2c(F)cc(SC(F)(F)F)cc2Cl)C1=O [I-278]		100%	90%	
C=CCSc1ccc(N2COCN(C(=O)c3c(F)cccc3F)C2=O)c(F)c1 [I-59]		100%	100%	
O=C(c1c(F)cccc1F)N1CN=CN(c2ccc(Oc3ccc(C(F)(F)F)cc3Cl)cc2F)C1=O [V-3]	100%	100%		
O=C(c1c(F)cccc1F)N1COCN(c2ccc(Cl)cc2)C1=O [I-1, 3-(4-chlorophenyl)-5-(2,6-difluorobenzoyl)tetrahydro-4H-1,3,5-oxadiazin-4-one]				pest or weed control at 100 ppm [2]: 100%; pest or weed control at 25 ppm [3]: 100%
O=C(c1c(F)cccc1Cl)N1COCN(c2ccc(S(=O)(=O)C(F)(F)C(F)(F)F)cc2F)C1=O [I-307]		100%	90%	
O=C(c1c(F)cccc1Cl)N1COCN(c2c(F)cc(SC(F)(F)F)cc2F)C1=O [I-281]		100%	100%	
O=C(c1c(F)cccc1Cl)N1COCN(c2cc(F)c([S+]([O-])C(F)(F)F)cc2F)C1=O (stereo not shown) [I-288]		100%	100%	
CC(C)Sc1ccc(N2COCN(C(=O)c3c(F)cccc3F)C2=O)c(F)c1 [I-53]		100%	100%	
O=C(c1c(F)cccc1F)N1COCN(c2c(F)cc(SC(F)(F)F)c(F)c2F)C1=O [I-116]	100%	100%		
O=C(c1c(F)cccc1F)N1CSCN(c2ccc(SC(F)(F)C(F)Cl)cc2F)C1=O (stereo not shown) [II-19]	100%			
O=C(c1c(F)cccc1F)N1COCN(c2cc(Cl)c(SC(F)(F)F)cc2F)C1=O [I-98]		100%	95%	
Cc1c(N2COCN(C(=O)c3c(F)cccc3F)C2=O)ccc(SC(F)(F)F)c1Cl [I-122]		100%	95%	
O=C(OCc1ccccc1)N1CN(C(=O)c2c(F)cccc2F)C(=O)N(c2ccc(SC(F)(F)C(F)Cl)cc2F)C1 (stereo not shown) [III-77]	100%	100%		
O=C(c1c(F)cccc1F)N1COCN(c2ccc(SC(F)(F)C(F)F)cc2F)C1=O [I-22]	100%	100%		
CS(=O)(=O)N1CN(C(=O)c2c(F)cccc2F)C(=O)N(c2ccc(Cl)cc2)C1 [III-12, 1-(4-chlorophenyl)-3-(2,6-difluorobenzoyl)-5-methanesulfonyltetrahydro-1,3,5-triazin-2(1H)-one]				pest or weed control at 100 ppm [2]: 100%; pest or weed control at 25 ppm [3]: 100%
O=C(c1c(F)cccc1F)N1CN(c2ccccc2)CN(c2cc(Cl)c(F)c(Cl)c2F)C1=O [III-54]	100%	100%		
